Measurements published in patent US12416052B2, “Capturing, concentrating, and detecting microbes in a sample using magnetic ionic liquids and recombinase polymerase amplification” (priority 2019, dated 2025).

How the values were obtained:
Salmonella typhimurium [1] = settings: thermal (120° C.-150° C.) disintegration; cited from earlier work
E. coli = settings: thermal (120° C.-150° C.) disintegration; cited from earlier work
[2] = tested on: Salmonella enterica subsp. enterica ser. Typhimurium ATCC 14028; type: cell-based; settings: Example 2; 2×T, 1×NaCl back-extraction medium
Experimental: A universal schematic for MIL-based cell extraction is depicted in FIG. 7B. A 1 mL volume of diluted cell suspension was added to a flat-bottomed 4-mL screw cap glass vial. Fifteen microliters of either the Ni(II) or Dy(III) MIL was added and dispersed into microdroplets by vortex agitation for 30 s. The aqueous phase was decanted following dispersive extraction, and the MIL was subjected to a brief wash step using 1 mL of nuclease-free water (Integrated DNA Technologies, Coralville, IA, USA) to ensure adequate removal of loosely or incidentally bound cells. After washing, release of viable cells from the MIL extraction phase was carried out using a “back-extraction” step accomplished through addition of 1 mL of an ionically-rich nutritive medium comprised of 20 g L^−1 tryptone and 10 g L^−1 NaCl, followed by a 120 s vortex step. After back-extraction, aliquots of the cell-enriched back-extraction medium were enumerated using the track dilution method using 100×100 mm square, gridded TSA, BSA, CA or VRBGA plates.
Following back-extraction, aliquots of the cell-enriched back-extraction medium were serially diluted in 0.1% peptone water and a 10 μL aliquot of each dilution was applied to a separate lane on square plates containing an appropriate agar medium. The plates were then tilted at an approximately 80° angle for 15 min to allow the droplets to travel toward the opposite end of the plate. The plates were incubated for 24 h at 37° C. (TSA, VRBGA), for 48 h at 37° C. (BSA) or for 24 h at 37° C. (CA). Colonies were counted and colony forming units (CFU) were determined. The enrichment factor (EF) for MIL-based extraction was calculated using Equation 1, where CMIL represents the concentration of bacteria in suspension following extraction using the MIL and CS is the initial concentration of bacteria in the sample.
Because culture-based methods depend on sample preparation steps that preserve bacterial viability, potential deleterious cytotoxic effects imparted by MIL extractants must be considered. To begin our further study of MIL-bacterial interactions, we selected S. typhimurium ATCC 14028 as a model gram-negative pathogen and the Ni(II) MIL as extractant.

Density of MIL = type: physicochemical
[3] = tested on: S. typhimurium ATCC 14028; assay: Exposure of cells and plating on non-selective (TSA) and selective (BSA) agar (viability, injury, toxicity); type: cell-based, Salmonella enterica
Experimental: To examine whether exposure time to the Ni(II) MIL affected cell viability, MIL-based whole-cell extraction was performed using the Ni(II) MIL, and cell-enriched back-extraction media were enumerated at 0, 5, 10 and 15 min on both TSA and BSA. To evaluate toxicity of the [EMIM^+][SCN^−] IL, one milliliter of diluted S. typhimurium ATCC 14028 cell suspension was added to a 4-mL screw cap glass vial. A 5% (vol/vol) or 50% (vol/vol) aqueous solution of 1-ethyl-3-methylimidazolium thiocyanate (“[EMIM^+][SCN^−]”) (IoLiTec, Tuscaloosa, AL, USA) was added and mixed by vortexing for 30 s. Aliquots were enumerated at 0, 5, 10 and 15 min using TSA and BSA.
One milliliter of diluted S. typhimurium ATCC 14028 cell suspension was added to a 4-mL screw cap glass vial. Fifteen microliters of either the Dy(III) MIL or 2-10 μL of 100 mM DyCh solution or 10 mg of the ammonium tetra(hexafluoroaceto)dysprosium salt (15) ([NH4^+][Dy(hfacac)4^−]) (“Dy(III) ammonium salt”) was added and dispersed by vortex agitation for 30 s. Aliquots of the Dy(III) MIL- or Dy(III) ammonium salt-exposed cell suspension were enumerated using square TSA or BSA plates (BD).
Because culture-based methods depend on sample preparation steps that preserve bacterial viability, potential deleterious cytotoxic effects imparted by MIL extractants must be considered. To begin our further study of MIL-bacterial interactions, we selected S. typhimurium ATCC 14028 as a model gram-negative pathogen and the Ni(II) MIL as extractant. Briefly, a 1 mL aliquot of TSB was inoculated with 1×10^5 CFU mL^−1 of bacteria and spiked with 15 μL of the Ni(II) MIL, and the general schematic for MIL-based extraction and recovery followed as shown in FIG. 7B. After extraction, 10 μL aliquots of the back-extraction solution were enumerated at 0, 5, 10 and 15 min using TSA and BSA. Average CFU counts were compared to a standard that was not exposed to the Ni(II) MIL. […] To better understand the data in FIG. 8, statistical analyses of Ni(II) MIL capture precision and CFU count variation as a function of MIL exposure time were performed. Variation in MIL capture may stem from inherent randomness of MIL dispersion and coalescence behaviors.
The effects of 5% or 50% (vol/vol) aqueous solutions of the [EMIM^+][SCN^−] IL on the viability of the cells were also evaluated. Average CFU counts were compared to a standard not exposed to [EMIM^+][SCN^−]. In our hands, when S. typhimurium was exposed to 50% (vol/vol) solutions of [EMIM^+][SCN^−], no recovery was observed on either TSA or BSA after 5 min of exposure.
To gain further insight into this phenomenon, the effect of free elemental dysprosium was evaluated by subjecting the cells to 0.1 mM and 1.0 mM solutions of DyCl3. The cells were exposed to the metal salt solutions for 30 s and subsequently plated on selective and non-selective media.
While the metal did show cytotoxicity, it cannot be completely responsible for the Dy(III) MIL's effect on the cells, as no flocculation was seen and growth was still observed. Since both the Ni(II) and the Dy(III) MILs contain identical cations ([P6,6,6,14^+]), the role of the anion structure was evaluated. The anion of the Dy(III) MIL contains one additional hexafluoroacetylacetonate ligand than the Ni(II) MIL (FIG. 7), making the coordination geometry of the two complexes different. To test the effects of the anion structure, cells were subjected to 10 mg of the Dy(III) ammonium salt. After a 30 second vortex, similar flocculation was observed as when the cells were exposed to the native Dy(III) MIL.

Salmonella typhimurium [4] = settings: plated to a selective agar; cited from earlier work

In the case of “1-butyl-1-methylpyrrolidinium bis(trifluoromethylsulfonyl)imide [[BMPyr^+][Ntf2^−]]”, the cell disruption (Salmonella typhimurium [1]) is given as “completely disrupted” and the cell disruption (E. coli) is given as “completely disrupted”.
In the case of CCCCCCCCCCCCCC[P+](CCCCCC)(CCCCCC)CCCCCC.O=C([CH-]C(=O)C(F)(F)F)C(F)(F)F.O=C([CH-]C(=O)C(F)(F)F)C(F)(F)F.O=C([CH-]C(=O)C(F)(F)F)C(F)(F)F.[Co+2] [Co(II) MIL], the enrichment factors [2] is reported as “approximately 12” and the density (Density of MIL) is reported as about 1.3 g/mL.
In the case of CCCCCCCCCCCCCC[P+](CCCCCC)(CCCCCC)CCCCCC.O=C([CH-]C(=O)C(F)(F)F)C(F)(F)F.O=C([CH-]C(=O)C(F)(F)F)C(F)(F)F.O=C([CH-]C(=O)C(F)(F)F)C(F)(F)F.O=C([CH-]C(=O)C(F)(F)F)C(F)(F)F.[Dy+3] [Dy(III) MIL, [P6,6,6,14^+][Dy(III) (hfacac)4^−]], the “flocculation and growth after plating” value ([3]; 15 μL added to cell suspension, 30 s vortex) is reported as “extensive flocculation and no growth after plating”.
In the case of O=C([CH-]C(=O)C(F)(F)F)C(F)(F)F.O=C([CH-]C(=O)C(F)(F)F)C(F)(F)F.O=C([CH-]C(=O)C(F)(F)F)C(F)(F)F.O=C([CH-]C(=O)C(F)(F)F)C(F)(F)F.[Dy+3].[NH4+] [Dy(III) ammonium salt, ammonium tetra(hexafluoroaceto)dysprosium salt, reference compound], the “growth on TSA or BSA” value ([3]; 10 mg, 30 second vortex, 24 h incubation) is reported as “no growth was seen on either TSA or BSA”.
For [Cl][Dy]([Cl])[Cl] [DyCl3, reference compound], the “viable counts on TSA and BSA” value ([3]; 0.1 mM and 1.0 mM solutions, 30 s exposure) was “substantially lower counts were observed on BSA than TSA”.
For CCn1cc[n+](C)c1.N#C[S-] [[EMIM^+][SCN^−], 1-ethyl-3-methylimidazolium thiocyanate, reference compound], the “recovery on TSA or BSA” value ([3]; 50% (vol/vol) solution, after 5 min of exposure) is given as “no recovery”, the “recovery on TSA or BSA” value ([3]; exposed as originally described for IL-based extraction from foods (Mester et al., 2010)) is given as “no recovery” and the “inoculated S. typhimurium recovered after IL-mediated matrix lysis” value (Salmonella typhimurium [4]) is given as 34-45%.
